Columns and labels:
[1] = Inhibition of N-terminal his 6 tagged recombinant Trypanosoma brucei PTR1 expressed in Escherichia coli BL21 (DE3) cells preincubated for 10 mins followed by NADPH addition and measured after 10 to 50 mins by multilabel plate reader method; format: cell-based
Trypanosoma brucei [2] = assay: Antiparasitic activity against blood stream form Trypanosoma brucei assessed as parasitic growth inhibition incubated for 72 hrs by resazurin dye based fluorescence analysis; format: functional, organism-based
THP-1 = assay: Cytotoxicity against human THP-1 cells assessed as reduction in cell viability measured after 72 hrs by MTT assay; format: functional
Leishmania infantum = assay: Antiparasitic activity against Leishmania infantum intracellular amastigotes MHOM/BR/1972/BH46 infected in human THP-1 cells assessed as inhibition of parasitic growth at 50 uM pre-infected for 24 hrs followed by compound addition and measured after 48 hrs relative to control; format: functional; settings: MHOM/BR/1972/BH46, THP-1
Pteridine reductase 1 = target: T1, Pteridine reductase 1 (Leishmania major, UniProt Q01782); assay: Inhibition of N-terminal his 6 tagged recombinant Leishmania major PTR1 expressed in Escherichia coli BL21 (DE3) cells preincubated for 10 mins followed by NADPH addition and measured after 10 to 50 mins by multilabel plate reader method
T1 sequence (Q01782 whole entry): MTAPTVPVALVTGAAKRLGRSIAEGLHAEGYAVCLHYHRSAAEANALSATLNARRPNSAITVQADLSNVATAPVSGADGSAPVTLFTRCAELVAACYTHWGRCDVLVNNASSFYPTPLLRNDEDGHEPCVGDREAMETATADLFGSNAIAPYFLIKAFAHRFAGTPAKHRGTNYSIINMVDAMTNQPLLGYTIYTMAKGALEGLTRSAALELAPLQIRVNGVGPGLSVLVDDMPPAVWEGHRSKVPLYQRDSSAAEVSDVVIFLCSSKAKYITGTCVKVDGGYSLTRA

[3] = Selectivity index, ratio of CC50 for human THP-1 cells to EC50 for bloodstream form Trypanosoma brucei; format: toxicity; settings: read-out: Ratio CC50/EC50
[4] = Cmax in BALB/c mouse at 20 mg/kg, po measured upto 24 hrs by LC-MS/MS analysis; format: ADME, organism-based; settings: in vivo
[5] = Half life in BALB/c mouse at 20 mg/kg, po measured upto 24 hrs by LC-MS/MS analysis; format: ADME, organism-based; settings: in vivo
[6] = AUC last in BALB/c mouse at 20 mg/kg, po measured upto 24 hrs by LC-MS/MS analysis; format: ADME, organism-based; settings: in vivo
[7] = Tmax in BALB/c mouse at 20 mg/kg, po measured upto 24 hrs by LC-MS/MS analysis; format: ADME, organism-based; settings: in vivo
Trypanosoma brucei [8] = assay: Antiparasitic activity against blood stream form Trypanosoma brucei assessed as parasitic growth inhibition at 10 uM incubated for 72 hrs by resazurin dye based fluorescence analysis relative to control; format: functional; set-up: scale not given: the % may be the effect or the level left
[9] = Growth inhibition of human A549 cells measured after 48 hrs by celltiter-glo assay; format: toxicity, cell-based
CYP1A2 = assay: Selectivity index, ratio of IC50 for CYP1A2 (unknown origin) to EC50 for blood stream form Trypanosoma brucei; format: toxicity; settings: read-out: Ratio IC50/EC50
Cytochrome P450 2C9 = Cytochrome P450 2C9 (Homo sapiens, UniProt P11712); assay: Inhibition of CYP2C9 (unknown origin) expressed in baculovirus infected insect cells using luciferin as substrate preincubated for 30 mins followed by NADPH addition and measured after 30 mins by luminescence based analysis; format: ADME, Insect cell
Chain of Cytochrome P450 2C9 (P11712 whole entry): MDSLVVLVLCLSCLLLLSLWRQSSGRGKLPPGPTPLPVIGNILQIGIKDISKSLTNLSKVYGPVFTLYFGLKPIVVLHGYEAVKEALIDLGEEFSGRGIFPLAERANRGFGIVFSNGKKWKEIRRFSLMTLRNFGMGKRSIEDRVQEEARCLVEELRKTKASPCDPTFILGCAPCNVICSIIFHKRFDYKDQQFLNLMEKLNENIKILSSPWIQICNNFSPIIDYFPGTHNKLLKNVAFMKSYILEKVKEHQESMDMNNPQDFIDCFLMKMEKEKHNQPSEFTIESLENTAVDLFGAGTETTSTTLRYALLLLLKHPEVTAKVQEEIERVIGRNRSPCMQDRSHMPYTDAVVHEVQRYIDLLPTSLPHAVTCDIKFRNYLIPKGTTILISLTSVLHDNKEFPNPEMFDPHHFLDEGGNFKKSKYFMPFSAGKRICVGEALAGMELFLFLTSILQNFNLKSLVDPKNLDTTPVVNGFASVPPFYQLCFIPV

Cytochrome P450 3A4 = Cytochrome P450 3A4 (Homo sapiens, UniProt P08684); assay: Inhibition of CYP3A4 (unknown origin) expressed in baculovirus infected insect cells using luciferin as substrate preincubated for 30 mins followed by NADPH addition and measured after 30 mins by luminescence based analysis; format: ADME, Insect cell
Chain of Cytochrome P450 3A4 (P08684 whole entry): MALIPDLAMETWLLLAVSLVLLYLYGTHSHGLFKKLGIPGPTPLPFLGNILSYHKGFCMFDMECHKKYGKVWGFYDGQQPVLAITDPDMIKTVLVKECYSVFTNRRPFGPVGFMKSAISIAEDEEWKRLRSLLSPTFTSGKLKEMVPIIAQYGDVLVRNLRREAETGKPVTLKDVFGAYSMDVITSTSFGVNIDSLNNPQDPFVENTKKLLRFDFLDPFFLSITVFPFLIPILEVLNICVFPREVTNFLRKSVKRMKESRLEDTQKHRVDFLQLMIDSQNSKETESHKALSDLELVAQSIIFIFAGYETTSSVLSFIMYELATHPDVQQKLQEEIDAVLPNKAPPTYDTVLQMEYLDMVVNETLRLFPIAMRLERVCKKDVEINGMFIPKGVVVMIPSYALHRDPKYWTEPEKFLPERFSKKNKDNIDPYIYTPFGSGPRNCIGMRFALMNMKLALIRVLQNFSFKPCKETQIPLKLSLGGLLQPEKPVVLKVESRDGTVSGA

Cytochrome P450 2C19 = Cytochrome P450 2C19 (Homo sapiens, UniProt P33261); assay: Inhibition of CYP2C19 (unknown origin) expressed in baculovirus infected insect cells using luciferin as substrate preincubated for 30 mins followed by NADPH addition and measured after 30 mins by luminescence based analysis; format: ADME, Insect cell
Chain of Cytochrome P450 2C19 (P33261 whole entry): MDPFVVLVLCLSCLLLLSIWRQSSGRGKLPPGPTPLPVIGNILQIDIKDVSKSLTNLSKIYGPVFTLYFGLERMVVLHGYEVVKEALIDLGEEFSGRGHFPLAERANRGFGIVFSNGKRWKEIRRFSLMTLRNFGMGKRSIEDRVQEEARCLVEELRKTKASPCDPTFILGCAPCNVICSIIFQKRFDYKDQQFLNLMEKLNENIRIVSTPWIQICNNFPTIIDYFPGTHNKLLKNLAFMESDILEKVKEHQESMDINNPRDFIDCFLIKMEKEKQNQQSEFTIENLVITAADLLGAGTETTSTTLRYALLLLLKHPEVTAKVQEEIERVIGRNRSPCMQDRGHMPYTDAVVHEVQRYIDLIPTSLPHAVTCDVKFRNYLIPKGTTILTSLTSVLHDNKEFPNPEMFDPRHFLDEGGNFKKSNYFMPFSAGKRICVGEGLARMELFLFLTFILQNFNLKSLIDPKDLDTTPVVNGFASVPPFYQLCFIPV

[10] = Selectivity index, ratio of IC50 for human A549 cells to EC50 for blood stream form Trypanosoma brucei; format: toxicity; settings: read-out: Ratio IC50/EC50
CYP2C19 = assay: Selectivity index, ratio of IC50 for CYP2C19 (unknown origin) to EC50 for blood stream form Trypanosoma brucei; format: toxicity; settings: read-out: Ratio IC50/EC50
Cytochrome P450 2D6 = Cytochrome P450 2D6 (Homo sapiens, UniProt P10635); assay: Inhibition of CYP2D6 (unknown origin) expressed in baculovirus infected insect cells using luciferin as substrate preincubated for 30 mins followed by NADPH addition and measured after 30 mins by luminescence based analysis; format: ADME, Insect cell
Chain of Cytochrome P450 2D6 (P10635 whole entry): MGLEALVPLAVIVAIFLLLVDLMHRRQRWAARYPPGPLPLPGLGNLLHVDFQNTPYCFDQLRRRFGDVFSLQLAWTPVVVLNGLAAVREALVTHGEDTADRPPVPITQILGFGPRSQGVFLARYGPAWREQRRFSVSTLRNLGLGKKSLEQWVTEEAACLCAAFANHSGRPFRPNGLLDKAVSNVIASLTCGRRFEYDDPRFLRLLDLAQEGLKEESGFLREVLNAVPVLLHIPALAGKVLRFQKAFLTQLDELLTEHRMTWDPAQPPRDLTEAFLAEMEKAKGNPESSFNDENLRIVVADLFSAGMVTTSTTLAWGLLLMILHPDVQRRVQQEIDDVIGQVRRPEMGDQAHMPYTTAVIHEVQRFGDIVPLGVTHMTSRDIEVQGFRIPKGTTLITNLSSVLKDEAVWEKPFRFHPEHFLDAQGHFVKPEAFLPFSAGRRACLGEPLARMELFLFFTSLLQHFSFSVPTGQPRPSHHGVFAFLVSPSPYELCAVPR

CYP2D6 = assay: Selectivity index, ratio of IC50 for CYP2D6 (unknown origin) to EC50 for blood stream form Trypanosoma brucei; format: toxicity; settings: read-out: Ratio IC50/EC50
[11] = Selectivity index, ratio of GI50 for human A549 cells to EC50 for blood stream form Trypanosoma brucei; format: toxicity; settings: read-out: Ratio GI50/EC50
[12] = Mitochondrial toxicity in human A549 cells; format: cell-based
Cytochrome P450 1A2 = target: T2, Cytochrome P450 1A2 (Homo sapiens, UniProt P05177); assay: Inhibition of CYP1A2 (unknown origin) expressed in baculovirus infected insect cells using luciferin as substrate preincubated for 30 mins followed by NADPH addition and measured after 30 mins by luminescence based analysis; format: ADME, Insect cell
T2 sequence (P05177 whole entry): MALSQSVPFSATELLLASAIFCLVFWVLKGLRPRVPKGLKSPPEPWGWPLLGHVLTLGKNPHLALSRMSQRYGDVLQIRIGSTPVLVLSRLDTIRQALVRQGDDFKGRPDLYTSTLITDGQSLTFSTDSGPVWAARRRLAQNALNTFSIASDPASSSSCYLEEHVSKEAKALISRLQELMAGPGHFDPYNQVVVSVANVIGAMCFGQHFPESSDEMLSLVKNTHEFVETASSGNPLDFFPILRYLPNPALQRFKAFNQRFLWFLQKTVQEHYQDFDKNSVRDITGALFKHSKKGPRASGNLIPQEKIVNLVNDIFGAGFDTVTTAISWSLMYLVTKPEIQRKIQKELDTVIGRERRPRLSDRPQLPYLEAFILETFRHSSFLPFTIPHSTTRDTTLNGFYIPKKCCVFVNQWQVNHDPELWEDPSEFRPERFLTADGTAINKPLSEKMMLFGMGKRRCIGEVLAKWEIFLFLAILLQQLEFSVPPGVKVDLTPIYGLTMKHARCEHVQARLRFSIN

[13] = target: Voltage-gated inwardly rectifying potassium channel KCNH2 (Homo sapiens, UniProt Q12809); assay: Inhibition of human ERG incubated for 2 hrs by fluorescence polarization assay; format: toxicity
Chain of Voltage-gated inwardly rectifying potassium channel KCNH2 (Q12809 whole entry): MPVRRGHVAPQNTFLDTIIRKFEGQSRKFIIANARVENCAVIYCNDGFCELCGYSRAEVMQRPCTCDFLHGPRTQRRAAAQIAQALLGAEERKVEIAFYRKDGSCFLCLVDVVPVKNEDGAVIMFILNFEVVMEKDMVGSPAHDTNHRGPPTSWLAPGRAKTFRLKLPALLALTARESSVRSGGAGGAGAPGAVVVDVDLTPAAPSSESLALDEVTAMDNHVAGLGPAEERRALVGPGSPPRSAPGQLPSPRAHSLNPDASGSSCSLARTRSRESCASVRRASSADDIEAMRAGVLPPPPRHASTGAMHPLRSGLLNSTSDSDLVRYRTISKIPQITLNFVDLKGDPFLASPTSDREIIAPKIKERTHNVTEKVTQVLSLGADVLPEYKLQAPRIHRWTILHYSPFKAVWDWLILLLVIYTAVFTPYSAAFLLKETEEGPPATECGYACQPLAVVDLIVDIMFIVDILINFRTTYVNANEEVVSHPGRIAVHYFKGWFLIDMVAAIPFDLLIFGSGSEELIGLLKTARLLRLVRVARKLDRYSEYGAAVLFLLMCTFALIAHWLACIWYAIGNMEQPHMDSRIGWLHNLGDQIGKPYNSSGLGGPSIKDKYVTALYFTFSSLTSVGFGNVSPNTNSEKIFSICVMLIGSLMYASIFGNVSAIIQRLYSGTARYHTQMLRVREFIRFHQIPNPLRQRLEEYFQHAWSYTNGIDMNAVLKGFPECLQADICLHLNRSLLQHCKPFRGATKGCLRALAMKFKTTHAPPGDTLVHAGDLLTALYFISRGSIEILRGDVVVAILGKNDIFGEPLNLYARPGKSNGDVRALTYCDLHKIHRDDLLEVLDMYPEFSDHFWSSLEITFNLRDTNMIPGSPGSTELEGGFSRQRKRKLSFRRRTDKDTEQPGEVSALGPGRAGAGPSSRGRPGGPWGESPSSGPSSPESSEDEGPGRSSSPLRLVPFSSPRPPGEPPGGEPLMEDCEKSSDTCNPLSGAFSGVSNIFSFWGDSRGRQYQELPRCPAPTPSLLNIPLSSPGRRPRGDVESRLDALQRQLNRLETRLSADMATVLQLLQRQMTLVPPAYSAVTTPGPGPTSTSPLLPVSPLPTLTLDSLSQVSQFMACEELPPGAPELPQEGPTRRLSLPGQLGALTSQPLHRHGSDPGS

hERG = assay: Selectivity index, ratio of IC50 for human ERG to EC50 for blood stream form Trypanosoma brucei; format: toxicity; settings: read-out: Ratio IC50/EC50
CYP3A4 = assay: Selectivity index, ratio of IC50 for CYP3A4 (unknown origin) to EC50 for blood stream form Trypanosoma brucei; format: toxicity; settings: read-out: Ratio IC50/EC50
CYP2C9 = assay: Selectivity index, ratio of IC50 for CYP2C9 (unknown origin) to EC50 for blood stream form Trypanosoma brucei; format: toxicity; settings: read-out: Ratio IC50/EC50

Row | EC50 (Trypanosoma brucei [2]) [µM] | IC50 (Pteridine reductase 1) [µM] | SMILES | IC50 [1] [µM] | CC50 (THP-1) [µM] | inhibition at 50 µM (Leishmania infantum) [%] | selectivity ratio [3] | also measured
1 | 0.65 | 58.1 | Nc1nc(N)c(C(C[N+](=O)[O-])c2cccc(Br)c2)c(N)n1 (stereo unspecified) | 0.05 | 50 | 30.2 | 118 | –
2 | 0.4 | 51.3 | Nc1nc(N)c(C(C[N+](=O)[O-])c2ccccc2OCc2cccc(Cl)c2)c(N)n1 (stereo unspecified) | 0.6 | 12.5 | 61 | 31 | Cmax [4]: 446 ng/mL; half-life [5]: 2.4 h; AUC(0-t) at 24 h [6]: 1820 ng·h/mL; Tmax [7]: 0.5 h
3 | 1.11 | 2.5 | Nc1nc(N)c(C(C[N+](=O)[O-])c2ccc3c(c2)OCCO3)c(N)n1 (stereo unspecified) | 0.23 | 12.5 | 54.4 | 11 | Cmax [4]: 25 ng/mL; half-life [5]: 4.5 h; AUC(0-t) at 24 h [6]: 107 ng·h/mL; Tmax [7]: 1 h
4 | – | – | CCc1nc(N)nc(N)c1-c1ccc(Cl)cc1 [PYRIMETHAMINE] | 0.09 | – | – | – | –
5 | 3.33 | 4.9 | Nc1nc(N)c(C(C[N+](=O)[O-])c2cccs2)c(N)n1 (stereo unspecified) | 0.19 | 50 | 22.5 | 15 | –
6 | 1.21 | 47.6 | Nc1nc(N)c(C(C[N+](=O)[O-])c2cccc3c2OCO3)c(N)n1 (stereo unspecified) | 0.03 | 12.5 | 36 | 10 | Cmax [4]: 399 ng/mL; half-life [5]: 2.1 h; AUC(0-t) at 24 h [6]: 2700 ng·h/mL; Tmax [7]: 0.5 h
7 | 1.68 | 70.7 | COc1cccc(OC)c1C(C[N+](=O)[O-])c1c(N)nc(N)nc1N (stereo unspecified) | 0.13 | 12.5 | 79.8 | 7 | –
8 | – | – | CCCCCCCCCCCCCCCCOP(=O)([O-])OCC[N+](C)(C)C [MILTEFOSINE] | – | – | 1.29 | – | –
9 | 2.13 | 19.8 | COc1cc(C(C[N+](=O)[O-])c2c(N)nc(N)nc2N)ccc1O (stereo unspecified) | 0.07 | 50 | 21.6 | 23 | –
10 | 1.28 | – | Nc1nc(N)c(C(C[N+](=O)[O-])c2ccc(Cl)cc2)c(N)n1 (stereo unspecified) | < 0.1 | 25 | – | 19 | –
11 | 5.05 | 63.8 | Nc1nc(N)c(C(C[N+](=O)[O-])c2ccco2)c(N)n1 (stereo unspecified) | 0.16 | 50 | – | 10 | –
12 | – | 13.9 | Nc1nc(N)c(C(C[N+](=O)[O-])c2c[nH]c3ccccc23)c(N)n1 (stereo unspecified) | < 0.1 | – | 4 | – | Activity (Trypanosoma brucei [8]): 28%
13 | – | 46.2 | Nc1nc(N)c(C(C[N+](=O)[O-])c2ccccc2OCc2ccccc2[N+](=O)[O-])c(N)n1 (stereo unspecified) | 0.26 | – | 11.7 | – | Activity (Trypanosoma brucei [8]): 48%
14 | 2.33 | 2.4 | COc1ccc(C(C[N+](=O)[O-])c2c(N)nc(N)nc2N)cc1OC (stereo unspecified) | 0.12 | 25 | 62.4 | 11 | –
15 | 1.19 | 63.4 | Nc1nc(N)c(C(C[N+](=O)[O-])c2cccc([N+](=O)[O-])c2)c(N)n1 (stereo unspecified) | < 0.1 | 50 | 74.2 | 42 | –
16 | 1.59 | 64.1 | Nc1nc(N)c(C(C[N+](=O)[O-])c2ccc(Br)cc2)c(N)n1 (stereo unspecified) | < 0.1 | 25 | 83.4 | 16 | –
17 | 4.4 | 21.3 | Nc1nc(N)c(C(C[N+](=O)[O-])c2ccc3c(c2)CCO3)c(N)n1 (stereo unspecified) | 0.39 | 50 | 21.1 | 11 | –
18 | 0.5 | – | Nc1nc(N)c(C(C[N+](=O)[O-])c2ccc3c(c2)OCO3)c(N)n1 (stereo unspecified) | 0.25 | 25 | – | 50 | –
19 | 0.82 | 60.2 | Nc1nc(N)c(C(C[N+](=O)[O-])c2ccc(Cl)c(Cl)c2)c(N)n1 (stereo unspecified) | 0.15 | 25 | 53.9 | 31 | –
20 | 0.3 | 46 | Nc1nc(N)c(C(C[N+](=O)[O-])c2ccccc2OCc2ccc(Cl)c(Cl)c2)c(N)n1 (stereo unspecified) | 0.27 | 25 | 11.7 | 83 | GI50 at 48 h [9]: 10 µM; selectivity ratio (CYP1A2): 4; IC50 (Cytochrome P450 2C9): 3.2 µM; IC50 (Cytochrome P450 3A4): 5.9 µM; IC50 (Cytochrome P450 2C19): 8 µM; selectivity ratio [10]: 13; selectivity ratio (CYP2C19): 26; IC50 (Cytochrome P450 2D6): 5.9 µM; selectivity ratio (CYP2D6): 20; selectivity ratio [11]: 33; Cmax [4]: 373 ng/mL; half-life [5]: 3 h; IC50 [12]: 3.9 µM; IC50 (Cytochrome P450 1A2): 1.2 µM; IC50 [13]: > 100 µM; selectivity ratio (hERG): > 300; AUC(0-t) at 24 h [6]: 1180 ng·h/mL; Tmax [7]: 0.5 h; selectivity ratio (CYP3A4): 20; selectivity ratio (CYP2C9): 11
21 | 0.34 | 49.7 | Nc1nc(N)c(C(C[N+](=O)[O-])c2ccc(OCc3ccc(Cl)c(Cl)c3)cc2)c(N)n1 (stereo unspecified) | 0.22 | 50 | 11.4 | 147 | Cmax [4]: 63 ng/mL; half-life [5]: 3 h; AUC(0-t) at 24 h [6]: 435 ng·h/mL; Tmax [7]: 2 h
22 | 0.6 | 51.3 | Nc1nc(N)c(C(C[N+](=O)[O-])c2ccccc2OCc2ccccc2)c(N)n1 (stereo unspecified) | 0.24 | > 100 | 81.1 | > 167 | –
23 | 2.41 | – | Cc1ccc(C(C[N+](=O)[O-])c2c(N)nc(N)nc2N)s1 (stereo unspecified) | 0.39 | 100 | 15.4 | 42 | –

Row | SMILES | EC50 (Trypanosoma brucei [2]) [µM] | IC50 (Pteridine reductase 1) [µM] | IC50 [1] [µM] | CC50 (THP-1) [µM] | inhibition at 50 µM (Leishmania infantum) [%] | selectivity ratio [3] | also measured
24 | Nc1cc(N)nc(N)n1 | – | 4.01 | 2.38 | – | – | – | –

From ChEMBL document CHEMBL5528010, “The discovery of aryl-2-nitroethyl triamino pyrimidines as anti-Trypanosoma brucei agents” (Eur J Med Chem, 2024)
